Results from patent publication US20040191172A1, “Preventive or therapeutic agents for dermatitis or alopecia, evaluation method of the agents, and transgenic mouse” (priority 2003, published 2004).

Tested on: K5/IL-18 Tg (+) mice
Test: Suppression of spontaneous dermatitis in K5/IL-18 transgenic (Tg (+)) mice, appearance and HE histopathology of back skin
Assay type: in vivo
Details: 1% (10 mg/mL) applied to back skin for consecutive seven days
Source text: The spontaneous dermatitis (A) refers to an inflammation that reaches its peak approximately on the 8th to 12th day after birth of an IL-18-introduced mouse and disappears after about four weeks and that has been identified by the inventors of the present invention for the first time. Pathologically speaking, in this inflammation, acanthosis (epidermal thickening) , hyperkeratosis, and inflammatory cell infiltrations that neutrophilic leukocytes are contained in dermis can be observed in dermal tissue, a slight sponge state is present in the epidermal base, and abscess formation in the cuticle due to epidermal neutrophilic infiltrations is observed (FIG. 3).
The evaluation method of the present invention can be performed as a method for screening agents for preventing/treating autoimmune dermatitis. The screening can be performed, for example, by the procedures of administrating an agent to be tested in either stage, before or after the occurrence of the peak of spontaneous dermatitis, and comparing mice without administration (control) in terms of the presence or the absence of peak occurrence, the size of the peak, the speed of peak disappearance or the like.
Next, the agent of preventing/treating dermatitis of the present invention will be described more specifically by way of examples. […]

C[C@@H]1C[C@H]2[C@@H]3CCC4=CC(=O)C=C[C@]4(C)[C@@]3(F)[C@@H](O)C[C@]2(C)[C@@]1(O)C(=O)CO [dexamethasone]
death from side effects (share of treated group): about a half
